In patent US9856216B2, “Compounds as TNIK, IKKε and TBK1 inhibitors and pharmaceutical composition comprising same” (GREEN CROSS CORPORATION, priority 2015, dated 2018) one finds IC50 data, which are given here for 34 compounds.

Where a name gives a salt, the structure may show the parent alone. Where only a bound is given, the exact number is not on record here.

In this assay the target is T1, TNIK (Homo sapiens, UniProt Q9UKE5).
T1 construct: purchased Promega V4158
As to the kind of experiment: ADP-Glo Kinase Assay, inhibition activity on TNIK. The format is biochemical. Conditions: read-out: TNIK. As for the experimental part:
The inhibition activities on TNIK, IKKε and TBK1 were measured by a luminometer, TNIK/IKKε/TBK1 Kinase Enzyme System (Promega, Ca# V4158; Invitrogen, PR8031B, Promega, Ca# V3991) and ADP-Glo Kinase Assay using ADP-Glo™ Kinase Analysis Kit (Promega, Ca# V9101) and a kinase reaction buffer [40 mM Tris(pH 7.5), 20 mM MgCl2, 0.1 mg/mL BSA] in accordance with the manufacturer's protocol.

T1 sequence (Q9UKE5 1-367 limits assumed): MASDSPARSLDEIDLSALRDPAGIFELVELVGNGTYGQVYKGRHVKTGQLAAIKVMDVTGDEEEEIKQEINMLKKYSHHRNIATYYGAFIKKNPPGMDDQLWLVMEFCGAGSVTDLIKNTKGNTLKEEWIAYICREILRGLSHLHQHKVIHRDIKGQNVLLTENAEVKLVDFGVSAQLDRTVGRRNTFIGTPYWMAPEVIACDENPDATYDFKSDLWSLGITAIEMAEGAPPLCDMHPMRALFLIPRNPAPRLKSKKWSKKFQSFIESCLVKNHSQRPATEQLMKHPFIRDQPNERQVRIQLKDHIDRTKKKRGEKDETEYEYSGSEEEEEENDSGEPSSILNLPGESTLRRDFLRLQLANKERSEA

As for `Cc1cccc(Nc2ccc(NC(=O)c3ccc(NCCCN4CCCC4)cc3)c3c2CNC3=O)c1` [Example 451, N-(3-oxo-7-(m-tolylamino)isoindolin-4-yl)-4-((3-(pyrrolidin-1-yl)propyl)amino)benzamide], the IC50 was 480 nM.
For `Cc1cccc(Nc2ccc(NC(=O)c3ccc(NCCCN4CCCCC4)cc3)c3c2CNC3=O)c1` [Example 452, N-(3-oxo-7-(m-tolylamino)isoindolin-4-yl)-4-((3-(piperidin-1-yl)propyl)amino)benzamide], the IC50 turned out to be 440 nM.
Next, `O=C(Nc1ccc(Nc2ccccc2Cl)c2c1C(=O)NC2)c1ccc(NCCN2CCCC2)cc1` [Example 453, N-(7-((2-chlorophenyl)amino)-3-oxoisoindolin-4-yl)-4-((2-(pyrrolidin-1-yl)ethyl)amino)benzamide]: 510 nM; `O=C(Nc1ccc(Nc2ccccc2Cl)c2c1C(=O)NC2)c1ccc(NCCN2CCCCC2)cc1` [Example 454, N-(7-((2-chlorophenyl)amino)-3-oxoisoindolin-4-yl)-4-((2-(piperidin-1-yl)ethyl)amino)benzamide]: 530 nM.
In the case of `O=C(Nc1ccc(Nc2cccc(Cl)c2)c2c1C(=O)NC2)c1ccc(NCCN2CCCC2)cc1` [Example 455, N-(7-((3-chlorophenyl)amino)-3-oxoisoindolin-4-yl)-4-((2-(pyrrolidin-1-yl)ethyl)amino)benzamide], the IC50 is 200 nM.
Regarding `O=C(Nc1ccc(Nc2cccc(Cl)c2)c2c1C(=O)NC2)c1ccc(NCCN2CCCCC2)cc1` [Example 456, N-(7-((3-chlorophenyl)amino)-3-oxoisoindolin-4-yl)-4-((2-(piperidin-1-yl)ethyl)amino)benzamide], the IC50 turned out to be 340 nM.
As to `O=C(Nc1ccc(Nc2cccc(Cl)c2)c2c1C(=O)NC2)c1ccc(NCCCN2CCCC2)cc1` [Example 457, N-(7-((3-chlorophenyl)amino)-3-oxoisoindolin-4-yl)-4-((3-(pyrrolidin-1-yl)propyl)amino)benzamide], the IC50 worked out at 150 nM.
In the case of `O=C(Nc1ccc(Nc2cccc(Cl)c2)c2c1C(=O)NC2)c1ccc(NCCCN2CCCCC2)cc1` [Example 458, N-(7-((3-chlorophenyl)amino)-3-oxoisoindolin-4-yl)-4-((3-(piperidin-1-yl)propyl)amino)benzamide], the IC50 was determined as 240 nM.
Take `O=C(Nc1ccc(Nc2ccccc2)c2c1C(=O)NC2)c1ccc(NCCCN2CCCC2=O)cc1` [Example 459, N-(3-oxo-7-(phenylamino)isoindolin-4-yl)-4-((3-(2-oxopyrrolidin-1-yl)propyl)amino)benzamide]: the IC50 was determined as 210 nM.
For `CN(C)CCCNc1ccc(C(=O)Nc2ccc(Nc3ccccc3)c3c2C(=O)NC3)cc1` [Example 460, 4-((3-(Dimethylamino)propyl)amino)-N-(3-oxo-7-(phenylamino)isoindolin-4-yl)benzamide], the IC50 stood at 140 nM.
For `O=C(Nc1ccc(Nc2ccccc2)c2c1C(=O)NC2)c1ccc(NCCCN2CCOCC2)cc1` [Example 461, 4-((3-Morpholinopropyl)amino)-N-(3-oxo-7-(phenylamino)isoindolin-4-yl)benzamide], the IC50 was found to be 380 nM.
As to `O=C(Nc1ccc(Nc2ccccc2)c2c1C(=O)NC2)c1ccc(NCCCN2CCCC2)cc1` [Example 462, N-(3-oxo-7-(phenylamino)isoindolin-4-yl)-4-((3-(pyrrolidin-1-yl)propyl)amino)benzamide], the IC50 was 290 nM.
For `CN1CCN(CCCNc2ccc(C(=O)Nc3ccc(Nc4ccccc4)c4c3C(=O)NC4)cc2)CC1` [Example 463, 4-((3-(4-Methylpiperazin-1-yl)propyl)amino)-N-(3-oxo-7-(phenylamino)isoindolin-4-yl)benzamide], the IC50 worked out at 370 nM.
For the compound `O=C(Nc1ccc(Nc2ccccc2)c2c1C(=O)NC2)c1ccc(NCCCO)cc1` [Example 464, 4-((3-Hydroxypropyl)amino)-N-(3-oxo-7-(phenylamino)isoindolin-4-yl)benzamide], the IC50 was found to be 74 nM.
As for `O=C(Nc1ccc(Nc2cc(C(F)(F)F)cc(C(F)(F)F)c2)c2c1C(=O)NC2)c1ccc(NCCN2CCCC2)cc1` [Example 465, N-(7-((3,5-bis(trifluoromethyl)phenyl)amino)-3-oxoisoindolin-4-yl)-4-((2-(pyrrolidin-1-yl)ethyl)amino)benzamide], the IC50 is > 20000 nM.
As for `O=C(Nc1ccc(Nc2cc(C(F)(F)F)cc(C(F)(F)F)c2)c2c1C(=O)NC2)c1ccc(NCCCN2CCCC2)cc1` [Example 466, N-(7-((3,5-bis(trifluoromethyl)phenyl)amino)-3-oxoisoindolin-4-yl)-4-((3-(pyrrolidin-1-yl)propyl)amino)benzamide], the IC50 came to 14000 nM.
Turning to `O=C(Nc1ccc(Nc2cc(C(F)(F)F)cc(C(F)(F)F)c2)c2c1C(=O)NC2)c1ccc(NCCN2CCCCC2)cc1` [Example 467, N-(7-((3,5-bis(trifluoromethyl)phenyl)amino)-3-oxoisoindolin-4-yl)-4-((2-(piperidin-1-yl)ethyl)amino)benzamide], the IC50 is > 20000 nM.
Regarding `O=C(Nc1ccc(Nc2cc(C(F)(F)F)cc(C(F)(F)F)c2)c2c1C(=O)NC2)c1ccc(NCCCN2CCCCC2)cc1` [Example 468, N-(7-((3,5-bis(trifluoromethyl)phenyl)amino)-3-oxoisoindolin-4-yl)-4-((3-(piperidin-1-yl)propyl)amino)benzamide], the IC50 amounted to 17100 nM.
Take `Cc1cccc(Nc2ccc(NC(=O)c3ccc(NCCN4CCCC4)cc3)c3c2CNC3=O)c1C` [Example 469, N-(7-((2,3-dimethylphenyl)amino)-3-oxoisoindolin-4-yl)-4-((2-(pyrrolidin-1-yl)ethyl)amino)benzamide]: the IC50 is 370 nM.
Regarding `Cc1cccc(Nc2ccc(NC(=O)c3ccc(NCCCN4CCCC4)cc3)c3c2CNC3=O)c1C` [Example 470, N-(7-((2,3-dimethylphenyl)amino)-3-oxoisoindolin-4-yl)-4-((3-(pyrrolidin-1-yl)propyl)amino)benzamide], the IC50 stood at 470 nM.
With `Cc1cccc(Nc2ccc(NC(=O)c3ccc(NCCN4CCCCC4)cc3)c3c2CNC3=O)c1C` [Example 471, N-(7-((2,3-dimethylphenyl)amino)-3-oxoisoindolin-4-yl)-4-((2-(piperidin-1-yl)ethyl)amino)benzamide], the IC50 stood at 610 nM.
On to `Cc1cccc(Nc2ccc(NC(=O)c3ccc(NCCCN4CCCCC4)cc3)c3c2CNC3=O)c1C` [Example 472, N-(7-((2,3-dimethylphenyl)amino)-3-oxoisoindolin-4-yl)-4-((3-(piperidin-1-yl)propyl)amino)benzamide], for which the IC50 stood at 410 nM.
Regarding `Cc1ccccc1Nc1ccc(NC(=O)c2ccc(NCCN3CCCC3)cc2)c2c1CNC2=O` [Example 473, N-(3-oxo-7-(o-tolylamino)isoindolin-4-yl)-4-((2-(pyrrolidin-1-yl)ethyl)amino)benzamide], the IC50 came to 430 nM.
For `COc1ccccc1Nc1ccc(NC(=O)c2ccc(NCCN3CCCC3)cc2)c2c1CNC2=O` [Example 474, N-(7-((2-methoxyphenyl)amino)-3-oxoisoindolin-4-yl)-4-((2-(pyrrolidin-1-yl)ethyl)amino)benzamide], the IC50 turned out to be 440 nM.
Consider `COc1ccccc1Nc1ccc(NC(=O)c2ccc(NCCCN3CCCC3)cc2)c2c1CNC2=O` [Example 475, N-(7-((2-methoxyphenyl)amino)-3-oxoisoindolin-4-yl)-4-((3-(pyrrolidin-1-yl)propyl)amino)benzamide], for which the IC50 was determined as 470 nM.
Next, `Cc1ccccc1Nc1ccc(NC(=O)c2ccc(NCCCN3CCCC3)cc2)c2c1CNC2=O` [Example 476, N-(3-oxo-7-(o-tolylamino)isoindolin-4-yl)-4-((3-(pyrrolidin-1-yl)propyl)amino)benzamide]: 500 nM.
Next, `COc1ccccc1Nc1ccc(NC(=O)c2ccc(NCCN3CCCCC3)cc2)c2c1CNC2=O` [Example 477, N-(7-((2-methoxyphenyl)amino)-3-oxoisoindolin-4-yl)-4-((2-(piperidin-1-yl)ethyl)amino)benzamide]: 420 nM; `COc1ccccc1Nc1ccc(NC(=O)c2ccc(NCCCN3CCCCC3)cc2)c2c1CNC2=O` [Example 478, N-(7-((2-methoxyphenyl)amino)-3-oxoisoindolin-4-yl)-4-((3-(piperidin-1-yl)propyl)amino)benzamide]: 490 nM.
As to `O=C(Nc1ccc(Nc2ccccc2)c2c1C(=O)NC2)c1ccc(NCCCN2CCCCC2)cc1` [Example 479, N-(3-oxo-7-(phenylamino)isoindolin-4-yl)-4-((3-(piperidin-1-yl)propyl)amino)benzamide], the IC50 amounted to 110 nM.
In the case of `O=C(Nc1ccc(Nc2ccccc2)c2c1C(=O)NC2)c1ccc(NCCCN2CCCCC2)cc1` [Example 480, N-(3-oxo-7-(phenylamino)isoindolin-4-yl)-4-((3-(piperidin-1-yl)propyl)amino)benzamide hydrochloride], the IC50 is 220 nM.
With `NCCNc1ccc(C(=O)Nc2ccc(Nc3ccccc3)c3c2C(=O)NC3)cc1` [Example 481, 4-((2-Aminoethyl)amino)-N-(3-oxo-7-(phenylamino)isoindolin-4-yl)benzamide], the IC50 is 200 nM.
Regarding `Cc1ccccc1Nc1ccc(NC(=O)c2ccc(NCCN3CCCCC3)cc2)c2c1CNC2=O` [Example 482, N-(3-oxo-7-(o-tolylamino)isoindolin-4-yl)-4-((2-(piperidin-1-yl)ethyl)amino)benzamide], the IC50 stood at 420 nM.
Take `Cc1ccccc1Nc1ccc(NC(=O)c2ccc(NCCCN3CCCCC3)cc2)c2c1CNC2=O` [Example 483, N-(3-oxo-7-(o-tolylamino)isoindolin-4-yl)-4-((3-(piperidin-1-yl)propyl)amino)benzamide]: the IC50 stood at 250 nM.
Turning to `O=C(Nc1ccc(Nc2ccccc2)c2c1C(=O)NC2)c1ccc(NCCCCO)cc1` [Example 484, 4-((4-Hydroxybutyl)amino)-N-(3-oxo-7-(phenylamino)isoindolin-4-yl)benzamide], the IC50 turned out to be 290 nM.
